Results on one compound are retold here after patent US20250206773A1, “FORMS AND COMPOSITIONS OF SODIUM CHENODEOXYCHOLATE” (Syntis Bio, Inc., priority 2022, published 2025).

Like-named read-outs stand apart in the source and are kept apart here.

Data set [1] is classed as physicochemical. Particulars: RT. As for the experimental part: HPLC analysis was carried out on an Agilent 1260 Infinity chromatograph, using a Hichrom C18 column 100×4.6 mm, 3.5 m, at 40° C. Method details were as follows: [table] Photostability of NaCDC Form B was evaluated by exposing it in solid state and in MeOH solutions to UV 254 nm light for 48 hours in clear, amber, and aluminum foil wrapped vials. The solutions were prepared by weighing around 10 mg NaCDC Form B and mixing it with 500 μL MeOH. The solids and solutions were sampled after 48 hours and analyzed by HPLC, in order to assess degradation. In parallel, XRPD analysis was performed on the recovered solids.

Data set [2] can be described thus: Polymorph screening: slurry with sonication. The data set is classed as physicochemical. Conditions: sonicated 15 minutes then 5° C. for 30 minutes, 6 cycles. The protocol:
Around 15 mg of NaCDC Form B was weighed into HPLC vials and 0.4 mL of corresponding solvents were added at RT. The slurries were sonicated for 15 minutes and then left to cool at 5° C. for 30 minutes—this cycle was repeated 6 times. At the end of the sixth cycle, all experiments were air-dried on filter paper and the recovered solids were analyzed by XRPD. Based on the XRPD data, some experiments were analyzed by HPLC.

Data set [3] in a line: Polymorph screening: solvent drop grinding. It is filed as physicochemical. Particulars: grinding 10 min. at RT. As for the experimental part:
Around 20 mg of NaCDC Form B was ground together with 10 μL aliquots of the corresponding solvent for 10 minutes at RT using an agate mortar with pestle. When total evaporation of the solvent was observed, another aliquot of 10 μL solvent was added and this procedure was repeated until experiment completion time. All solids were analyzed by XRPD. For the experiments where phase transformation was observed via XRPD, additional analyses of TG/DSC and/or HPLC were performed.

As for `C[C@H](CCC(=O)[O-])[C@H]1CC[C@H]2[C@@H]3[C@H](O)C[C@@H]4C[C@H](O)CC[C@]4(C)[C@H]3CC[C@]12C.[Na+]` [Form B, sodium chenodeoxycholate], the “HPLC (%) at 212 nm, after 48h” value in data set [1] (ST01: UV 254 nm, solid, clear vial) amounted to 94.4%; in data set [1] (ST02: UV 254 nm, solid, amber vial), 95.0%; in data set [1] (ST03: UV 254 nm, solid, control - dark), 95.4%; in data set [1] (ST04: UV 254 nm, MeOH solution, clear vial), 91.4%; in data set [1] (ST05: UV 254 nm, MeOH solution, amber vial), 91.0%; in data set [1] (ST06: UV 254 nm, MeOH solution, control - dark), 94.2%. Further, the “HPLC purity (%) at 212 nm” value in data set [2] (SLS03, Ethyl acetate (EtOAc)) turned out to be 90.42%; in data set [2] (SLS08, EtOH:MeCN (1:1 v/v)), 79.23%; in data set [2] (SLS09, EtOH:n-Heptane (1:1 v/v)) it was 89.68%; in data set [3] (SDGR01, Ethanol (EtOH) 140 μL), 83.36%; in data set [3] (SDGR02, 2-Propanol 80 μL) it was 81.26%; in data set [3] (SDGR03, 2,2,2-Trifluoroethanol (TFE) 90 μL), 90.87%. The “HPLC purity (%) at 212 nm” value was determined as 82.04% in data set [3] (SDGR05, MeOH:EtOAc (1:1 v/v) 260 μL); 85.56% in data set [3] (SDGR06, MeOH:Acetone (1:1 v/v) 240 μL); 86.54% in data set [3] (SDGR07, EtOH:MeCN (1:1 v/v) 190 μL); 90.36% in data set [3] (SDGR08, EtOH:n-Heptane (1:1 v/v) 220 μL). The XRPD result in data set [3] (SDGR04, Diisopropyl ether 160 μL) is given as “SM, l.c”.
